The values below come from patent publication US20260335388A1, “COMBINATION THERAPIES WITH ONCOLYTIC ADENOVIRUS AND TOPOISOMERASE I INHIBITORS OR PRODRUGS THEREOF” (priority 2022, published 2026).

The test system of series [1] is HSJD-RBVS-10 retinoblastoma cells. The series is described as follows: cells. The format is cell-based. The settings on record: Homo sapiens.
Series [2] relates to E1a. In kind it is cell-based.
The test system of the next series is Y79 tumors. In kind it is in vivo, mouse. As to conditions: systemic drug after intratumoral VCN-01 3×10E^9 vp/tumor; 5 or 15 days (FIGS. 2A-B).
For another series, the system named is HSJD-RBT-7 tumors. In kind it is in vivo, mouse. The settings on record: systemic drug after intratumoral VCN-01 3×10E^9 vp/tumor; 5 days (FIG. 3).
Series [3] has as its system E1A. In kind it is in vivo, mouse.
Series [4] has as its system HSJD-NB-005 neuroblastoma. The series is described as follows: Antitumor activity in neuroblastoma PDX HSJD-NB-005. The format is in vivo, mouse. As to conditions: single treatment (FIG. 24D,F). How it is done: PDX of neuroblastoma (pediatric solid tumor) were implanted subcutaneously into athymic nude mice. Tumor model was HSJD-NB-005. Upon engraftment (tumor volumes ranging 100-500 mm^3), treatments were started. The activity of topotecan vs. irinotecan in combination with VCN-01 was evaluated. The following groups of mice were included in the study, with an n of 6 tumors per group: • Group 1: no treatment • Group 2: topotecan i.p. at 0.6 mg/kg, Day 1-5 • Group 3: irinotecan i.p. at 10 mg/kg, Day 1-5 • Group 4: VCN-01 i.t at 3E9 vp/tumor, Day 1 • Group 5: VCN-01 i.t at 3E9 vp/tumor, Day 1 (morning)+topotecan i.p. at 0.6 mg/kg, Day 1-5 • Group 6: VCN-01 i.t at 3E9 vp/tumor, Day 1 (morning)+irinotecan i.p. at 10 mg/kg, Day 1-5
Antitumor activity in extracranial pediatric solid tumors. 5-10 mm^3 fresh fragments of Ewing sarcoma or neuroblastoma PDX were implanted in both flanks of mice. Upon s.c. engraftment (tumor volume 150-200 mm^3), mice received topotecan (0.6 mg/kg, i.p., days 1-5), VCN-01 (3×10^9 vp in 20 µL vehicle, intratumoral, day 1), or the combination. In two additional groups, an alternative topoisomerase 1 inhibitor, irinotecan (10 mg/kg, i.p., on days 1-5) we used in place of topotecan. Upon completion of treatments, tumor volumes were followed until endpoint (1500 mm^3), or until day 80.

In series [5] the test system is E1A, E1B, E2F-1, p53 and cPARP. Kind of series: Expression of viral genes and proteins by treatment sequence, Y79 cells. In kind it is cell-based. The method, then:
The expression of viral genes E1A and E1B was studied in 6-well culture plates containing 2×10^6 retinoblastoma cells. […] The experiments were controlled by adding culture medium instead of topotecan. […] Real time quantitative polymerase chain reactions (RT-qPCR) were carried out to analyze gene expression using SYBR technology (Thermo Fisher Scientific).
In all experiments, 6-well culture plates containing 2×10^6 cells were used. […] The experiments were controlled by adding culture medium instead of the second treatment. […] The analyses were expanded to other chemotherapeutic agents including hydroxyurea ([…]), etoposide (2 μM), irinotecan (10 μM) or SN-38 (1 μM).
Near-infrared labeled secondary antibodies (Odyssey CLx, LI-COR Inc. Bad Homburg, Germany) were used for detection.

For a further series, the system named is E2F-1. Kind of series: E2F-1 immunostaining in intraocular Y79 tumors. In kind it is in vivo, mouse. As to conditions: mice with intraocular Y79 tumors, vs untreated (FIG. 17E).
Another series relates to Y79 xenografts. Kind of series: Ocular survival, Y79 intraocular xenografts (first study). In kind it is in vivo, mouse. As to conditions: control 37 days; P vs control: combination 0.0005, topotecan 0.062, standard of care 0.674, VCN-01 1 (FIG. 20A).
For series [6], the system named is s.c. retinoblastomas (Y79 and RBT-7). The series is described as follows: VCN-01 genomes in s.c. xenografts (Y79 and RBT-7). The format is in vivo, mouse. How it is done:
To quantify genome copies of VCN-01 in cell cultures or mouse tissues, total DNA was extracted and real time quantitative polymerase chain reactions (RT-qPCR) was performed as described (Cascallo et al., “Systemic toxicity-efficacy profile of ICOVIR-5, a potent and selective oncolytic adenovirus based on the pRB pathway,” Mol Ther 2007; 15(9):1607-15).
Intratumoral infection of VCN-01. S.c. tumors were established in athymic nude mice. Upon xenograft engraftment, mice received one intratumoral injection of VCN-01, alone or combined with one cycle of topotecan, […], or hydroxyurea. At 5 and 15 days after VCN-01 inoculation, genome copies of VCN-01 were quantified in the tumors and immunostained for E1A and E2F-1.
To establish s.c. tumors, 10^6 retinoblastoma cells suspended in 25 µL matrigel (Corning, Glendale, AZ, USA) were injected in athymic nude mice. Upon xenograft engraftment (tumor volumes ranging 100-200 mm^3), treatments were started. Mice received VCN-01 (3×10^9 vp in 20 µL vehicle, single intratumoral injection at day 1), alone or combined with one cycle of topotecan (0.6 mg/kg, intraperitoneal -i.p.-, daily at days 1-5), […] (40 mg/kg, i.p, one single dose at day 1), or hydroxyurea (200 mg/kg, i.p., daily at days 1-5). […] In tumor homogenates, genome copies of VCN-01 were quantified. […]

For series [7] the following is noted: non-tumor bearing pigs, cited from earlier work.
The mark [8] stands for this setting: topotecan pretreatment before VCN-01 (FIG. 13E).

For orientation: IC50 means the concentration that inhibits the measured activity by half.

Like-named read-outs stand apart in the source and are kept apart here.

Procedure for Y79 xenografts: Antitumor activity in retinoblastoma. […] For ocular tumors, treatments were started at day 8 after inoculation (when tumors were appreciable by fundus examination).
In a first study, one dose of VCN-01 (3×10^8 vp in 2 μL vehicle, intravitreal, day 15), therapeutic schedules of topotecan or standard of care (SoC) retinoblastoma chemotherapy, or their combinations, was administered in the Y79 intraocular xenograft. For topotecan, mice received 0.6 mg/kg i.p. injections on days 8-12 and 29-33. […] 40 mg/kg, on days 8 and 29, and etoposide 6 mg/kg, on days 8-10 and 29-31.

As for `CC[C@@]1(O)C(=O)OCc2c1cc1n(c2=O)Cc2cc3c(CN(C)C)c(O)ccc3nc2-1` [Topotecan, topotecan], the IC50 was determined as 29.6 nM in series [1] (read-out: IC50, Topotecan single agent) and 126 nM in series [1] (read-out: IC50, Topotecan with VCN-01 (10 MOI)). Besides, the “expression of VCN-01 proteins (E1a)” value with E1a [2] (4 retinoblastoma models, VCN-01 50 MOI, drug added at 24 h, lysis at 48 h (FIG. 1)) is recorded as “enhanced expression of VCN-01 proteins”. In the series with E1a [2] (VCN-01 infected cells treated with drug (FIG. 13B, FIG. 15A)), the “E1A expression in infected cells” value was “highly overexpressed”. Further, the “VCN-01 genome content in tumors” value in the series on Y79 tumors and in the series on HSJD-RBT-7 tumors was “increases VCN-01 genome content” in each case. In addition, the “number of E1A-positive cells” value in the series on E1A [3] (5-day topotecan treatment, VCN-01-pretreated tumors, vs saline, […] or hydroxyurea (FIG. 18I)) is given as “highest number of E1A-positive cells”. For the same compound, the “level of E1A protein expression” value in the series on E1A [3] (5-day topotecan treatment, VCN-01-pretreated tumors, vs saline, […] or hydroxyurea (FIG. 18J)) is “highest level of E1A protein expression”. Besides, the “VCN-01 activity (E1A) in tumors” value in the series on E1A [3] (systemic drug after intratumoral VCN-01, 5 or 15 days (FIGS. 4A-C)) was “enhances VCN-01 activity”. Besides, the “response of xenograft to single treatment” value in [4] is “highly resistant”. Also, the “E1A expression, VCN-01 first” value in [5] (topotecan addition after the virus (FIG. 13E,F)) is given as “up to two orders of magnitude”. In addition, in series [5] (topotecan addition after the virus (FIG. 13G)), the “E1B expression, VCN-01 first” value was “up to two orders of magnitude”. Besides, in series [5] (setting [8]), the “E2F-1 level, topotecan first” value is reported as “accumulation of E2F-1”. Further, in series [5] (setting [8]), the “p53 and cPARP expression, topotecan first” value is “increased expression of proapoptotic proteins p53 and cPARP”. Besides, the “E1A expression (protein and gene), topotecan first” value in series [5] (topotecan pretreatment before VCN-01 (FIG. 13E,F)) was “low expression of E1A (protein and gene)”. For the same compound, the “E2F-1 expression in cancer cells” value in the series on E2F-1 is given as “higher in the animals treated with topotecan”. In addition, in the series on Y79 xenografts, the median ocular survival is reported as 58 days. Further, the “counts of viral genomes, 5 days” value in [6] (5 days after intratumoral VCN-01 (FIG. 18G)) is on record as “higher counts of viral genomes”. The “counts of viral genomes, 15 days” value in [6] (15 days after intratumoral VCN-01 (FIG. 19B)) was “Different counts of viral genomes were not observed”. Besides, the “systemic exposure, OAC versus IV” value in series [7] is “systemic exposure was comparable between the two routes”. The “topotecan concentration in retina, OAC versus IV” value in [7] (retina, after OAC than after IV) is on record as 146 times higher. In addition, the “topotecan concentration in vitreous, OAC versus IV” value in series [7] (vitreous, after OAC than after IV) is on record as 243 times higher.
